Test results from patent US20030032791A1, “Novel melanocortin-4 receptor sequences and screening assays to identify compounds useful in regulating animal appetite and metabolic rate” (priority 2000, published 2003).
Like-named read-outs stand apart in the source and are kept apart here. Marks after values point to notes of the source that are not given here. Each block holds one molecule with its values, some of them ahead of it. Residues, ends and D or L forms follow the SMILES beside them.

Tests used:
[1] = biological target: canine MC4R (canine); experiment: cell-based or functional assay
[2] = biological target: canine MC4R (canine)
[3] = test system: cMC4R; experiment: cMC4R
[4] = biological target: T1, hMC4R (Homo sapiens, UniProt P32245); experiment: hMC4R; set-up: expressed in transfected cells; host or cells: HEK293
Target sequence in this assay (P32245 whole entry, looked up): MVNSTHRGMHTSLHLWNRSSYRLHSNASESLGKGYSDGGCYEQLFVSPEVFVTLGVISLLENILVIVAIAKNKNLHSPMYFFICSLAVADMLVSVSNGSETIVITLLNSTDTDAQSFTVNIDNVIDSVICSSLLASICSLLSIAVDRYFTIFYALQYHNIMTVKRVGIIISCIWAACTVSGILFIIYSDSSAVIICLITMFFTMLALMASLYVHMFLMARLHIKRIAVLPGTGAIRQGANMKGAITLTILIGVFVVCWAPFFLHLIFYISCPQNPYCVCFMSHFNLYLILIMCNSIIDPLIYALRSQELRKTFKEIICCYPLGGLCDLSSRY

[5] = biological target: T2, hMC3R (Homo sapiens, UniProt P41968); experiment: hMC3R; set-up: expressed in transfected cells; host or cells: HEK293
Target sequence in this assay (P41968 whole entry, looked up): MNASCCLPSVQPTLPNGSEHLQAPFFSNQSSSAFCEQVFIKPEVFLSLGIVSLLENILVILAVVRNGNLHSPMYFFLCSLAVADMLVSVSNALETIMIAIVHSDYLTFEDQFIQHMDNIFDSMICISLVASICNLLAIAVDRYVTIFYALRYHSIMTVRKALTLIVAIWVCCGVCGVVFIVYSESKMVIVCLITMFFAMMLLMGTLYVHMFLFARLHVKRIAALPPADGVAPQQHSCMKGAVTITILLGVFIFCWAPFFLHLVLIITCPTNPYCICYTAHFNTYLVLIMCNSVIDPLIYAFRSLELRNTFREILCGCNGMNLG

[6] = biological target: T1, hMC4R
Target sequence in this assay (P32245 whole entry): as the sequence (P32245 whole entry, looked up) above

[7] = biological target: T2, hMC3R
Target sequence in this assay (P41968 whole entry): as the sequence (P41968 whole entry, looked up) above

[8] = test system: cMC4R; experiment: FLIPR calcium release assay in HEK293a/cMC4R/Gα15, Gα16 cells; conditions: read-out: EC50, agonist stimulated calcium release; HEK293a/cMC4R/Gα15, Gα16, Fluo-4
[9] = biological target: canine MC4R (Canis lupus familiaris, UniProt A0A2Z6BEC9); conditions: 1 pM α-MSH
[10] = biological target: T2, hMC3R; remark: listed apart in the source
Target sequence in this assay (P41968 whole entry): as the sequence (P41968 whole entry, looked up) above

[11] = test system: Obese Beagle Dogs; experiment: Indirect calorimetry following ICV injection in lateral ventricle cannulated dogs; assay type: in vivo, dog; conditions: NDP-MSH 75 mol
Source text: (§1) Healthy, (1-3 years of age) male and female beagles (Marshall Farms, North Rose N.Y.) weighing 11-15 kg were employed as test subjects. The animals were surgically implanted with lateral ventricle cannulas using standard techniques. Wilsson-Rahmberg et al., 1998, J. Investigative Surgery, 11:207-214. Cannula placement and patency were confirmed with fluoroscopy. The dogs were housed individually in standard caging meeting or exceeding the USDA regulations (U.S. Department of Agriculture, Animal Welfare, Final Rules. 9 C.F.R. Parts 1-3,1995).
Each subject received a single 50 μl injection in one lateral ventricle (ICV injection) of one of 3 solutions: 30-100 nmol of the non-specific melanocortin (MC) receptor agonist [N1 e^4, D-Phe^7]-α-MSH (hereinafter “NDP-MSH,” Bachem Bioscience Inc., King of Prussia Pa.), 1-2 nmol of the MC3/4 receptor antagonist SHU-9119 (Bachem Bioscience Inc., King of Prussia, Pa.) or vehicle which consisted of artificial cerebrospinal fluid (hereinafter “aCSF,” Harvard Apparatus, Holliston, Mass.). NDP-MSH and SHU-9119 were received as a dry powder and were reconstituted with aCSF to achieve an appropriate concentration for a ^50 μl injection. Following ICV injection, resulting effects on food intake or metabolic rate were determined.
The studies consisted of one group of animals containing five dogs. In study 1, dogs received either NDP-MSH or aCSF on day 0 in a cross-over design with two dogs receiving NDP-MSH first and three dogs receiving aCSF first. Resulting effects on food intake were determined. In study 2, dogs received either SHU-9119 or aCSF on day 0 in a cross-over design with two dogs receiving SHU-9119 first and three dogs receiving aCSF first. Resulting effects on food intake were determined. In study 3, dogs received either NDP-MSH or aCSF on day 0 in a cross-over design with three dogs receiving NDP-MSH first and two dogs receiving aCSF first. Resulting effects on metabolic rate were determined. In study 4, dogs received either SHU-9119 or aCSF on day 0 in a cross-over design with three dogs receiving SHU-9119 first and two dogs receiving aCSF first. Resulting effects on metabolic rate were determined. Each test animal was permitted ad libitum access to water and IAMS […]® (The IAMS Company, Dayton Ohio) dry food each day during the study unless otherwise noted.
Reduction or increase in metabolic rate was measured by standard indirect calorimetry using an open circuit calorimeter (OXYMAX DELUXE@, Columbus Instruments, Columbus Ohio). Dogs were fasted for approximately 18 hours prior to ICV injection. Calorimetry sessions were initiated approximately 2 hours after ICV injection and lasted for 60-90 minutes.

[12] = test system: Obese Beagle Dogs; experiment: 24 hr food intake following ICV injection in lateral ventricle cannulated dogs; assay type: in vivo, dog; conditions: NDP-MSH 100 nmol
Source text: as §1
Each subject received a single 50 μl injection in one lateral ventricle (ICV injection) of one of 3 solutions: 30-100 nmol of the non-specific melanocortin (MC) receptor agonist [N1 e^4, D-Phe^7]-α-MSH (hereinafter “NDP-MSH,” Bachem Bioscience Inc., King of Prussia Pa.), 1-2 nmol of the MC3/4 receptor antagonist SHU-9119 (Bachem Bioscience Inc., King of Prussia, Pa.) or vehicle which consisted of artificial cerebrospinal fluid (hereinafter “aCSF,” Harvard Apparatus, Holliston, Mass.). […] Following ICV injection, resulting effects on food intake or metabolic rate were determined.
The studies consisted of one group of animals containing five dogs. […] Resulting effects on food intake were determined. […] Resulting effects on food intake were determined. […] Resulting effects on metabolic rate were determined. […] Resulting effects on metabolic rate were determined. […]

[13] = biological target: T1, hMC4R; remark: listed apart in the source
Target sequence in this assay (P32245 whole entry): as the sequence (P32245 whole entry, looked up) above

[14] = ICV injection, SHU 9119 2 nmol, about 2 hours after injection, fasted dogs
[15] = versus aCSF control, SHU 9119 2 nmol ICV

Chain of canine MC4R (canine) (Q0Z8I9 other isoform, or with tags, fused parts or gaps): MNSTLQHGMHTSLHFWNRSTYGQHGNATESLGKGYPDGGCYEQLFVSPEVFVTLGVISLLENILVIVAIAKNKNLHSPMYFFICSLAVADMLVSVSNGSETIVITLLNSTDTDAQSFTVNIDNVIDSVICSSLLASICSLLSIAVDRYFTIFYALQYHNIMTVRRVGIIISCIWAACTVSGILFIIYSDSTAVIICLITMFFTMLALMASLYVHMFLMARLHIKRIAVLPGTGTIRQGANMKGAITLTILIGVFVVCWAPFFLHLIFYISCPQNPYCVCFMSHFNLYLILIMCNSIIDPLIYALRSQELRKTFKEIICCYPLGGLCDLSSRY
Chain of canine MC4R (A0A2Z6BEC9 1-332): as the sequence (Q0Z8I9 other isoform, or with tags, fused parts or gaps) above

Molecule: N=C(N)NCCC[C@@H]1NC(=O)[C@@H](Cc2ccc3ccccc3c2)NC(=O)[C@H](Cc2c[nH]cn2)NC(=O)[C@H](CCC(=O)O)NC(=O)CCSSC[C@@H](C(=O)N2CCC[C@H]2C(=O)N2CCC[C@H]2C(=O)N[C@@H](CCCCN)C(=O)N[C@@H](CC(=O)O)C(N)=O)NC(=O)CNC(=O)[C@H](Cc2c[nH]c3ccccc23)NC1=O [JKC363] (HELM PEPTIDE1{[O=C(CCS[*:3])[*:2]].E.H.[O=C([C@@H](Cc1ccc2ccccc2c1)N[*:1])[*:2]].R.W.G.C.P.P.K.D.[am]}$PEPTIDE1,PEPTIDE1,1:R3-8:R3$$$V2.0; C-terminus assumed)
IC50 [3]: 0.971 nM
IC50 [4]: 1.31 nM
IC50 [5]: 15.1 nM
IC50 [6]: 2.11 nM
IC50 [7]: 22.7 nM

Molecule: α-MSH
EC50 [8]: 55 nM
concentration of cAMP ([9]; 30 minutes, most concentrated batch of cells (1.5×10^6 cells/ml)): 13.82 pmol/mL
cAMP levels over background ([9]; cells at each concentration (0.5, 1.0, 1.5×10^6 cells/ml)): significant increase
difference in cAMP versus negative control cells ([9]; most concentrated batch of cells): almost ten-fold

Molecule: MTII
EC50 [8]: 10 nM

Molecule: SHU9119
Heat Produced, Average [11, 14]: 13 kcal/h
VO2, Average [11, 14]: 3.6 mL/min/kg
Heat Produced, % Change [11, 15]: −37* %
VO2, % Change [11, 15]: −38* %
24 hr Food Intake, Average ([12]; ICV injection, SHU 9119 2 nmol): 366 g
24 hr Food Intake, % Change [12, 15]: +132* %

The remaining lines, values ahead:

EC50, agonist stimulated calcium release (FLIPR, HEK293a/cMC4R/Gα15, Gα16 cells) [1]: 10 nM
IC50 [2]: 0.877 nM
Molecule: MTII (peptide)

IC50 [2]: 1.27 nM
IC50 [10]: 22.8 nM
Molecule: JKC363 (peptide)

IC50, antagonist inhibition of calcium release in the presence of 20 nM NDP-MSH agonist (FLIPR) [1]: 2 nM
IC50 [10]: 0.188 nM
IC50 [13]: 0.0116 nM
Molecule: SHU9119 (peptide)

EC50, agonist stimulated calcium release (FLIPR, HEK293a/cMC4R/Gα15, Gα16 cells) [1]: 55 nM
cAMP, fold over negative control cells [1]: 10 fold
concentration of cAMP in α-MSH treated cells (1.5×10^6 cells/ml) [1]: 13.8 pmol/mL
Molecule: α-MSH (from UniProt P01189 138-150) (peptide)
